Series [1] concerns Klebsiella pneumoniae. Put plainly: Antibacterial activity against carbapenem resistant Klebsiella pneumoniae clinical isolate 19-17 assessed as inhibition of bacterial growth incubated for 18 to 24 hrs by broth microdilution method. Particulars: time 18-24 hrs. In kind it is functional.
The test system of series [2] is Acinetobacter baumannii. Kind of series: Antibacterial activity against oxacillinase-27 producing Acinetobacter baumannii NCTC 13304 assessed as inhibition of bacterial growth incubated for 18 to 24 hrs by broth microdilution method. In kind it is functional. Particulars: time 18-24 hrs.
Series [3] in a line: Selectivity index, ratio of IC50 for cytotoxicity against human HK-2 cells to MIC for antibacterial activity against Escherichia coli ATCC BAA-2523. In kind it is toxicity, cell-based.
The test system of series [4] is Klebsiella pneumoniae. Put plainly: Antibacterial activity against KPC producing Klebsiella pneumoniae ATCC BAA-1705 assessed as inhibition of bacterial growth incubated for 18 to 24 hrs by broth microdilution method. In kind it is functional. Particulars: time 18-24 hrs.
Series [5] relates to Escherichia coli. Kind of series: Antibacterial activity against Escherichia coli NCTC 13353 assessed as inhibition of bacterial growth incubated for 18 to 24 hrs by broth microdilution method. In kind it is functional. The following applies: time 18-24 hrs.
Series [6] deals with Klebsiella pneumoniae. Put plainly: Antibacterial activity against carbapenem resistant Klebsiella pneumoniae clinical isolate 19-15 assessed as inhibition of bacterial growth incubated for 18 to 24 hrs by broth microdilution method. Particulars: time 18-24 hrs. In kind it is functional.
In series [7] the test system is Escherichia coli. Put plainly: Antibacterial activity against Escherichia coli ATCC BAA-2523 assessed as inhibition of bacterial growth incubated for 18 to 24 hrs by broth microdilution method. Particulars: time 18-24 hrs. In kind it is functional.
For series [8], the system named is Staphylococcus epidermidis. Kind of series: Antibacterial activity against methicillin resistant Staphylococcus epidermidis clinical isolate 19-6 assessed as inhibition of bacterial growth incubated for 18 to 24 hrs by broth microdilution method. In kind it is functional. Particulars: time 18-24 hrs.
The test system of series [9] is Pseudomonas aeruginosa. Kind of series: Antibacterial activity against carbapenem resistant Pseudomonas aeruginosa clinical isolate 19-3 assessed as inhibition of bacterial growth incubated for 18 to 24 hrs by broth microdilution method. In kind it is functional. Particulars: time 18-24 hrs.
The test system of series [10] is Staphylococcus aureus. Kind of series: Antibacterial activity against methicillin resistant Staphylococcus aureus ATCC 33591 assessed as inhibition of bacterial growth incubated for 18 to 24 hrs by broth microdilution method. In kind it is functional. The following applies: time 18-24 hrs.
The subject of series [11] is Acinetobacter baumannii. Kind of series: Antibacterial activity against carbapenem resistant Acinetobacter baumannii clinical isolate 19-8 assessed as inhibition of bacterial growth incubated for 18 to 24 hrs by broth microdilution method. In kind it is functional. Particulars: time 18-24 hrs.
The subject of series [12] is Staphylococcus aureus. Kind of series: Antibacterial activity against Staphylococcus aureus ATCC 29213 assessed as inhibition of bacterial growth incubated for 18 to 24 hrs by broth microdilution method. In kind it is functional. Particulars: time 18-24 hrs.
The subject of series [13] is Pseudomonas aeruginosa. Kind of series: Antibacterial activity against carbapenem resistant Pseudomonas aeruginosa clinical isolate 17-1 assessed as inhibition of bacterial growth incubated for 18 to 24 hrs by broth microdilution method. In kind it is functional. Particulars: time 18-24 hrs.
In series [14] the test system is Staphylococcus epidermidis. Kind of series: Antibacterial activity against methicillin resistant Staphylococcus epidermidis clinical isolate 19-5 assessed as inhibition of bacterial growth incubated for 18 to 24 hrs by broth microdilution method. In kind it is functional. The following applies: time 18-24 hrs.
Series [15] is described as follows: Cytotoxicity against human HK-2 cells assessed as inhibition of cell growth incubated for 72 hrs by CCK-8 assay. In kind it is toxicity, cell-based.
Series [16] relates to Pseudomonas aeruginosa. Put plainly: Antibacterial activity against Pseudomonas aeruginosa clinical isolate 19-1 assessed as inhibition of bacterial growth incubated for 18 to 24 hrs by broth microdilution method. In kind it is functional. The following applies: time 18-24 hrs.
The test system of series [17] is Pseudomonas aeruginosa. Kind of series: Antibacterial activity against Pseudomonas aeruginosa ATCC 27853 assessed as inhibition of bacterial growth incubated for 18 to 24 hrs by broth microdilution method. In kind it is functional. Particulars: time 18-24 hrs.
For series [18], the system named is Escherichia coli. Put plainly: Antibacterial activity against KPC producing Escherichia coli ATCC BAA-2340 assessed as inhibition of bacterial growth incubated for 18 to 24 hrs by broth microdilution method. In kind it is functional. The following applies: time 18-24 hrs.
Series [19] concerns Escherichia coli. Put plainly: Antibacterial activity against Escherichia coli clinical isolate 19-2 assessed as inhibition of bacterial growth incubated for 18 to 24 hrs by broth microdilution method. Particulars: time 18-24 hrs. In kind it is functional.

Converted amounts (≈) assume the structure as drawn.

With `CCCCCCCCCC(=O)N[C@H](CCN)C(=O)N[C@H]1CCNC(=O)[C@H]([C@@H](C)O)NC(=O)[C@H](CCN)NC(=O)[C@H](CCN)NC(=O)[C@H](CC(C)C)NC(=O)[C@@H](CC(C)C)NC(=O)[C@H](CCCN)NC1=O`, the minimum inhibitory concentration (MIC) in the series with Klebsiella pneumoniae [1], in the series on Acinetobacter baumannii [2], in the series on Klebsiella pneumoniae [4], in the series with Escherichia coli [5], in the series on Klebsiella pneumoniae [6] and in the series with Escherichia coli [7] was more than 64 µg/mL throughout. Besides, the minimum inhibitory concentration (MIC) in series [8] was 32 µg/mL (≈ 32.1 µM); in the series on Pseudomonas aeruginosa [9] it was more than 64 µg/mL; in the series on Staphylococcus aureus [10], more than 64 µg/mL; in the series with Acinetobacter baumannii [11], more than 64 µg/mL; in the series on Staphylococcus aureus [12], more than 64 µg/mL; in the series on Pseudomonas aeruginosa [13], more than 64 µg/mL. For the same molecule, the MIC in series [14] is 4 µg/mL (≈ 4.01 µM); in the series with Pseudomonas aeruginosa [16] it was more than 64 µg/mL; with Pseudomonas aeruginosa [17], more than 64 µg/mL; with Escherichia coli [18], more than 64 µg/mL; in the series with Escherichia coli [19], more than 64 µg/mL. Further, the selectivity ratio in series [3] was less than 4.3. Further, the concentration for half-maximal inhibition (IC50) at 72 h in [15] amounted to 277 µg/mL (≈ 278 µM).
Take `CCCCCCCCCC(=O)N[C@H](CCN)C(=O)N[C@H]1CCNC(=O)[C@H]([C@@H](C)O)NC(=O)[C@H](CCN)NC(=O)[C@H](CCN)NC(=O)[C@H](CC(C)C)NC(=O)[C@@H](Cc2ccc(Cl)cc2)NC(=O)[C@H](CCN)NC1=O`: the MIC with Klebsiella pneumoniae [1] was found to be 2 µg/mL (≈ 1.9 µM); in the series with Acinetobacter baumannii [2], 8 µg/mL (≈ 7.61 µM); in the series on Klebsiella pneumoniae [4] it was 0.5 µg/mL (≈ 0.476 µM); in the series on Escherichia coli [5], 2 µg/mL (≈ 1.9 µM); in the series on Klebsiella pneumoniae [6], 2 µg/mL (≈ 1.9 µM); in the series on Escherichia coli [7], 1 µg/mL (≈ 0.952 µM). The minimum inhibitory concentration (MIC) in series [8] worked out at 4 µg/mL (≈ 3.81 µM); in the series with Pseudomonas aeruginosa [9], 0.5 µg/mL (≈ 0.476 µM); with Staphylococcus aureus [10], 16 µg/mL (≈ 15.2 µM); in the series on Acinetobacter baumannii [11] it was 32 µg/mL (≈ 30.5 µM); in the series on Staphylococcus aureus [12], 8 µg/mL (≈ 7.61 µM); in the series on Pseudomonas aeruginosa [13], 1 µg/mL (≈ 0.952 µM). Moreover, the minimal inhibitory concentration (MIC) in series [14] was determined as 0.5 µg/mL (≈ 0.476 µM); with Pseudomonas aeruginosa [16], 0.5 µg/mL (≈ 0.476 µM); with Pseudomonas aeruginosa [17] it was 0.5 µg/mL (≈ 0.476 µM); with Escherichia coli [18], 1 µg/mL (≈ 0.952 µM); with Escherichia coli [19], 1 µg/mL (≈ 0.952 µM). In [3], the selectivity ratio amounted to 48.1. The half-inhibitory concentration (IC50) at 72 h in series [15] was 48.1 µg/mL (≈ 45.8 µM).
As to `CC(C)C[C@@H]1NC(=O)[C@@H](CC(C)C)NC(=O)[C@H](CCN)NC(=O)[C@@H](NC(=O)[C@@H](CCN)NC(=O)CCCCCC(C)(C)C)CCNC(=O)[C@H]([C@@H](C)O)NC(=O)[C@H](CCN)NC(=O)[C@H](CCN)NC1=O`, the minimum inhibitory concentration (MIC) was more than 64 µg/mL in the series with Klebsiella pneumoniae [1]; more than 64 µg/mL with Acinetobacter baumannii [2]; 32 µg/mL (≈ 32.6 µM) in the series on Klebsiella pneumoniae [4]; 32 µg/mL (≈ 32.6 µM) in the series on Escherichia coli [5]; 64 µg/mL (≈ 65.2 µM) with Klebsiella pneumoniae [6]; 32 µg/mL (≈ 32.6 µM) in the series with Escherichia coli [7]. Further, the minimum inhibitory concentration (MIC) was more than 64 µg/mL in series [8]; 8 µg/mL (≈ 8.14 µM) with Pseudomonas aeruginosa [9]; more than 64 µg/mL in the series on Staphylococcus aureus [10]; more than 64 µg/mL in the series with Acinetobacter baumannii [11]; more than 64 µg/mL with Staphylococcus aureus [12]; 8 µg/mL (≈ 8.14 µM) in the series on Pseudomonas aeruginosa [13]. Besides, the minimal inhibitory concentration (MIC) was 8 µg/mL (≈ 8.14 µM) in [14]; 2 µg/mL (≈ 2.04 µM) in the series with Pseudomonas aeruginosa [16]; 2 µg/mL (≈ 2.04 µM) in the series with Pseudomonas aeruginosa [17]; 16 µg/mL (≈ 16.3 µM) with Escherichia coli [18]; 32 µg/mL (≈ 32.6 µM) in the series on Escherichia coli [19]. Further, the selectivity ratio in series [3] came out at 1.3. Further, in [15], the half-maximal inhibitory concentration (IC50) at 72 h came to 40.4 µg/mL (≈ 41.1 µM).
On to `CCCCCCCCCC(=O)N[C@H](CCN)C(=O)N[C@H]1CCNC(=O)[C@H]([C@@H](C)O)NC(=O)[C@H](CCN)NC(=O)[C@H](CCN)NC(=O)[C@H](CC(C)C)NC(=O)[C@@H](Cc2ccc(N)cc2)NC(=O)[C@H](CCN)NC1=O`, for which the MIC in the series on Klebsiella pneumoniae [1] is more than 64 µg/mL; with Acinetobacter baumannii [2] it was more than 64 µg/mL; with Klebsiella pneumoniae [4], more than 64 µg/mL; in the series on Escherichia coli [5], more than 64 µg/mL; with Klebsiella pneumoniae [6] it was more than 64 µg/mL; in the series on Escherichia coli [7] it was 64 µg/mL (≈ 62.1 µM). Further, the minimal inhibitory concentration (MIC) in series [8] was 32 µg/mL (≈ 31 µM); in the series on Pseudomonas aeruginosa [9] it was more than 64 µg/mL; in the series on Staphylococcus aureus [10], more than 64 µg/mL; in the series on Acinetobacter baumannii [11], more than 64 µg/mL; in the series on Staphylococcus aureus [12] it was more than 64 µg/mL; in the series on Pseudomonas aeruginosa [13] it was more than 64 µg/mL. For the same molecule, the MIC in [14] was 16 µg/mL (≈ 15.5 µM); in the series on Pseudomonas aeruginosa [16], more than 64 µg/mL; in the series on Pseudomonas aeruginosa [17] it was more than 64 µg/mL; with Escherichia coli [18], 64 µg/mL (≈ 62.1 µM); in the series with Escherichia coli [19] it was 64 µg/mL (≈ 62.1 µM). Moreover, the selectivity ratio in [3] was 3.6. The IC50 at 72 h in series [15] is 228 µg/mL (≈ 221 µM).

For the origin of these results see ChEMBL document CHEMBL5380795, “Design, Synthesis, and Bioactivity Investigation of Cyclic Lipopeptide Antibiotics Containing Eight to Nine Amino Acids” (J Med Chem, 2023).
